The source made the active and inactive calls.
Experiments:
[1] = target: T1, Heat shock factor protein 1 (Mus musculus, UniProt P38532); assay: decrease of HSF1-responsive luciferase luminescence – cell-based, NIH3T3, dose retest, confirmation (AID 2382); type: functional;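 note: NIH3T3 fibroblasts with HSF1-driven luciferase reporter stressed by proteasome inhibitor MG132; luminescence from HSF1-driven luciferase expression after 8 hours of MG132 stress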
T1 sequence (P38532 whole entry): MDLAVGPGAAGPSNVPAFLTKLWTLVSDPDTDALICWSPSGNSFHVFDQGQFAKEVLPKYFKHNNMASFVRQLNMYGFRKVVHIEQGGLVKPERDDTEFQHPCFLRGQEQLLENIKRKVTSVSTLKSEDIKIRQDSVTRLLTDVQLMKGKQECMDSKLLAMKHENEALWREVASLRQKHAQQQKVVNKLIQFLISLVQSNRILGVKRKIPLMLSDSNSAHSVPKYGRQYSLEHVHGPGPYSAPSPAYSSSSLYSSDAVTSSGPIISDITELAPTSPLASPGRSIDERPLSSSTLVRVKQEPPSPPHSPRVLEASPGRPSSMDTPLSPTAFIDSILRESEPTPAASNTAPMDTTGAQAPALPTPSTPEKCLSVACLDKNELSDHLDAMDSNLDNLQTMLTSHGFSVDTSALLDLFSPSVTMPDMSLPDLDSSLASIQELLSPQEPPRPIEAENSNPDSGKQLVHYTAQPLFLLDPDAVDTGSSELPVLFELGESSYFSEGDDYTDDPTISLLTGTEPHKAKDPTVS

[2] = target: Cytochrome P450 2D6 (Homo sapiens, UniProt P10635);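 note: CYP2D6 member of a cytochrome P450 panel assay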
Cytochrome P450 2D6, sequence (P10635 whole entry): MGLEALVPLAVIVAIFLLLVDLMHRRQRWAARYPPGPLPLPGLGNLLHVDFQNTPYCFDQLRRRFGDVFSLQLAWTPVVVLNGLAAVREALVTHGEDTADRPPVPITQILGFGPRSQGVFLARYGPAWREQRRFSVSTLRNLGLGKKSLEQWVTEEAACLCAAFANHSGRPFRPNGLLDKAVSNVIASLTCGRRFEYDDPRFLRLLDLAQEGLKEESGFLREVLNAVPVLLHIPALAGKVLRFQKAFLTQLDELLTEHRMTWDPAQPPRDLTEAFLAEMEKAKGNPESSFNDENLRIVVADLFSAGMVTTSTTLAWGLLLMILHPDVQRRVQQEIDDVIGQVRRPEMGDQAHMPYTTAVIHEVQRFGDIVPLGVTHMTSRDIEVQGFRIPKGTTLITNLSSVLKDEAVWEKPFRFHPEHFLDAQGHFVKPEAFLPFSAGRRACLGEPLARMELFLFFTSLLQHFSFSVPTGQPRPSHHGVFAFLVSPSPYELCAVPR

[3] = target: T2, Cytochrome P450 1A2 (Homo sapiens, UniProt P05177);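 note: PubChem cytochrome P450 panel assay, CYP1A2 panel member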
T2 sequence (P05177 whole entry): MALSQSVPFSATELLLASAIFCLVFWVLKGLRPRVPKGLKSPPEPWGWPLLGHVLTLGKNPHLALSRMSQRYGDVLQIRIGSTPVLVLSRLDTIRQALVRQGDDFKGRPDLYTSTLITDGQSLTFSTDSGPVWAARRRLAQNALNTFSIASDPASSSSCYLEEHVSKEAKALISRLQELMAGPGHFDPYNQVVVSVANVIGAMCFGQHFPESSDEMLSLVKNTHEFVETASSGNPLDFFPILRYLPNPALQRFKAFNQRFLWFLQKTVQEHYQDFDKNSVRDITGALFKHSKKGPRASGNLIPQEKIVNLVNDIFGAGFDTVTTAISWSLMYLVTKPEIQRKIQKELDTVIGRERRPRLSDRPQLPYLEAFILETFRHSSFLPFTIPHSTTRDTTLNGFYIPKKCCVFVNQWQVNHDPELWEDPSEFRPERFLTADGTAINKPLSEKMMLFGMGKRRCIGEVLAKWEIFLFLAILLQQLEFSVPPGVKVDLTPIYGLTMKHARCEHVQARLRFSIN

[4] = target: Cytochrome P450 3A4 (Homo sapiens, UniProt P08684);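 note: CYP3A4 tested as one member of a cytochrome P450 panel screen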
Cytochrome P450 3A4, sequence (P08684 whole entry): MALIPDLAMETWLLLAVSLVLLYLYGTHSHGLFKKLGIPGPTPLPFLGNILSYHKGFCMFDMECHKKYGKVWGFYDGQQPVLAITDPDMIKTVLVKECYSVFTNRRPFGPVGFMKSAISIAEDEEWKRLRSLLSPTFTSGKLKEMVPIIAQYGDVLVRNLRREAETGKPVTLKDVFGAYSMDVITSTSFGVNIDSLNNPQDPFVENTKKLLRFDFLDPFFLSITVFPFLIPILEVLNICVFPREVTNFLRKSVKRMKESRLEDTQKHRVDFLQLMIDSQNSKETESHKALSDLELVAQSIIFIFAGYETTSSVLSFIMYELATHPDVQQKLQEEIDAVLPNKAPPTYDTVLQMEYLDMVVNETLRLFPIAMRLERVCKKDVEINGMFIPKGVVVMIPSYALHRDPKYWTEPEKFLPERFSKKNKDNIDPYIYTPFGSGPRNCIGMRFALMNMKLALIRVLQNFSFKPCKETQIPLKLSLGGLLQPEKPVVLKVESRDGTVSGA

[5] = target: T3, Corticotropin-releasing factor receptor 2/Corticotropin-releasing factor-binding protein (Homo sapiens, UniProt P24387+Q13324); assay: Dose Response confirmation of uHTS hits for small molecule antagonists of the CRF-binding protein and CRF-R2 receptor complex.; type: functional; conditions: read-out: IC50_Mean
T3 sequence (Q13324 whole entry): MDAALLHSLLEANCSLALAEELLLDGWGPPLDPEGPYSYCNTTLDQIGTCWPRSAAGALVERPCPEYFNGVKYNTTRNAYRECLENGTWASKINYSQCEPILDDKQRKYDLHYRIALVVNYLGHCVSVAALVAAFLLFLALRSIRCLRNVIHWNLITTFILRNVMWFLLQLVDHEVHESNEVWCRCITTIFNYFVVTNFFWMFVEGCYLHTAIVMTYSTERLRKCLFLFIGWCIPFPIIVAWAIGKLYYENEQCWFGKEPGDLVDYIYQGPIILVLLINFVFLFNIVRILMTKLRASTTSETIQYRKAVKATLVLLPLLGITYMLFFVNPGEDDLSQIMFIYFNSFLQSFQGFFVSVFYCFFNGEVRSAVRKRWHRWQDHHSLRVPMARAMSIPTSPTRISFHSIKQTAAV
T3 sequence (P24387 whole entry): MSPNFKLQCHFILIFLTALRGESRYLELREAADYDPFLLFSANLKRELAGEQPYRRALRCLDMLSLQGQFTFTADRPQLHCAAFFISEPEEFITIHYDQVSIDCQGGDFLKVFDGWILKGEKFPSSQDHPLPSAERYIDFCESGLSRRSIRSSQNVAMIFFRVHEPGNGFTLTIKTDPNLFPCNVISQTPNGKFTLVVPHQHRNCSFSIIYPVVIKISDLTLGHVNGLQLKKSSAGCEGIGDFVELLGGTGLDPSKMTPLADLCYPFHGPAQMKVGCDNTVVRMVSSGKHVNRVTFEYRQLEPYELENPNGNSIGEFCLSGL

[6] = target: T3, Corticotropin-releasing factor receptor 2/Corticotropin-releasing factor-binding protein; assay: activators of CRF receptor 2 with binding protein – uHTS hits, confirmation (AID 602473); type: functional; conditions: read-out: EC50_Mean
[7] = target: T4, Rac GTPase-activating protein 1 (Homo sapiens, UniProt Q9H0H5); assay: blockers of MgcRacGAP-driven Rac1 GTP hydrolysis – biochemical, ADP Hunter fluorescence, primary and confirmatory, confirmation (AID 624330); type: functional
T4 sequence (Q9H0H5 whole entry): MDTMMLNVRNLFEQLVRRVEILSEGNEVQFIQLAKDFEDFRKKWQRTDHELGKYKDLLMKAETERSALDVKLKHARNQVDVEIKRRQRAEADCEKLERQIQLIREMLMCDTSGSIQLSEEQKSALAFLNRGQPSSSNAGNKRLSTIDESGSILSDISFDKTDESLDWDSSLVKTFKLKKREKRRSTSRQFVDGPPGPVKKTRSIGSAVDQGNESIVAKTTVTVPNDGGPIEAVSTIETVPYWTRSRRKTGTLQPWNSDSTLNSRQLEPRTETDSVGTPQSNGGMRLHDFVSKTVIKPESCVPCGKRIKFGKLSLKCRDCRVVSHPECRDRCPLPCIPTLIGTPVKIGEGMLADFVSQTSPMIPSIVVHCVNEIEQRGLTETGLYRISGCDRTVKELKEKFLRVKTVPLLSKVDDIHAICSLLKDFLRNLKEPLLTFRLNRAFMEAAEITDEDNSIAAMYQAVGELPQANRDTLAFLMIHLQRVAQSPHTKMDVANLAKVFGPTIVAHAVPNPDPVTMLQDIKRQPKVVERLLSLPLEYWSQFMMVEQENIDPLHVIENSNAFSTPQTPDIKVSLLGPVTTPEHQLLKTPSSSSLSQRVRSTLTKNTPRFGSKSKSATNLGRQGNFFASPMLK

Compound | EC50 [1] | IC50 [5] | EC50 [6] | also measured
COc1cccc(N2CCN(C(S)=Nc3cc(C)cc(C)c3)CC2)c1 | 94.4 µM (active) |  |  | 
CCOc1ccc2nc(NC(=O)/C=C/c3ccc4c(c3)OCO4)sc2c1 | > 195 µM (not active) |  |  | 
Cc1ccc(NC(=O)Cn2cnc3c(cnn3C(C)(C)C)c2=O)cc1 |  |  |  | AC50 [2]: 14.1 µM (inconclusive); AC50 [3]: 31.6 µM (inconclusive); AC50 [4]: 12.6 µM (inconclusive)
O=C(Nc1nc(-c2ccccc2)cs1)c1ccc2c(c1)S(=O)(=O)c1ccccc1C2=O |  | > 47.1 µM (inactive) | > 53 µM (inactive) | 
CCN(c1ccccc1)S(=O)(=O)c1cc(NC(=O)CSc2nnc(O)nc2O)ccc1Cl |  | > 47.1 µM (inactive) | > 53 µM (inactive) | 
O=C(CC1CCCCC1)NCc1ccccn1 | > 195 µM (not active) |  |  | 
COc1ccc(N2CCN(c3oc(Cc4ccccc4)nc3C#N)CC2)cc1 | > 195 µM (not active) |  |  | 
CCCc1cc(=O)nc(SCC(=O)Nc2ccc(OC(F)F)cc2)[nH]1 |  | > 47.1 µM (inactive) | > 53 µM (inactive) | 
CN1N=C2c3ccccc3CCC2C1c1ccc(C(F)(F)F)cc1 (stereo not given) | 79.4 µM (active) |  |  | 
O=C1c2ccccc2-c2ncnc3c(N4CCOCC4)cc(N4CCOCC4)c1c23 |  | > 47.1 µM (inactive) | > 53 µM (inactive) | 
CCCCOc1cccc(C2C(C(=O)c3cccs3)=C(O)C(=O)N2Cc2cccnc2)c1 (stereo not given) | > 195 µM (not active) |  |  | 
COc1ccc(Nc2nc(Cl)nc(NCc3ccco3)n2)c(OC)c1 |  | > 47.1 µM (inactive) | > 53 µM (inactive) | 
Cc1ccccc1C(=O)NCC(=O)OC1CCCCC1=O (stereo not given) |  | > 47.1 µM (inactive) | > 53 µM (inactive) | 
Cn1c2ccccc2c2cnn(CC(=O)N3CCC4(CC3)OCCO4)c(=O)c21 | 39.3 µM (active) |  |  | 
COc1cc2c(cc1OC)C(/C=C(\O)c1ccc(C)cc1)=NCC2 | > 195 µM (not active) |  |  | 
COC(=O)N1CCC2(CCCN(C(=O)Nc3ccc(OC)cc3)C2)CC1 |  |  |  | AC50 [3]: 20 µM (inconclusive); AC50 [4]: 25.1 µM (inconclusive)
Cc1ccc(CNC(=O)CCC(=O)c2cccs2)cc1 |  | > 47.1 µM (inactive) | > 53 µM (inactive) | 
Cc1ccc(OCCC(=O)OCC(=O)Nc2ccc(N3CCOCC3)cc2)cc1 | > 195 µM (not active) |  |  | 
COc1cccc(OC)c1C(=O)N1CCN(Cc2cccnc2)CC1 |  | > 47.1 µM (inactive) | > 53 µM (inactive) | IC50 [7]: 203 µM (active)
Cc1cc(OCCCC(=O)Nc2cc(S(=O)(=O)N3CCOCC3)ccc2N2CCOCC2)ccc1Cl |  | > 47.1 µM (inactive) | > 53 µM (inactive) | 
CCC(C)c1ccc(S(=O)(=O)N2CCN(CC(O)COCC3CCCO3)CC2)cc1 (stereo not given) |  | > 47.1 µM (inactive) | > 53 µM (inactive) | 
COc1ccc(N2CCN(C(=O)CCS(=O)(=O)c3ccc4c(c3)NC(=O)CO4)CC2)cc1 |  | > 47.1 µM (inactive) | > 53 µM (inactive) | 
Cc1ccc(S(=O)(=O)N/N=C/c2c(C)nn(-c3ccccc3)c2C)cc1 | > 195 µM (not active) |  |  | 
NCCCC(=O)O [GAMMA-AMINOBUTYRIC ACID] | > 195 µM (not active) |  |  | AC50 [3]: 31.6 µM (inconclusive)

Reference: ChEMBL document CHEMBL1201862, “PubChem BioAssay data set” (2004)
